Peptide text beside a SMILES is read from it.
How the values were obtained:
NAALADase = NAALADase (Rattus norvegicus, UniProt P70627); details: NAAG as substrate of NAALADase; cited from earlier work
male Brown Norway rats [1] = experiment: Experimental rat glaucoma (IOP elevation by hypertonic saline), optic nerve fiber counting; assay type: in vivo; details: 10 mg/kg daily i.p.
Procedure: (§1) All experiments complied with the Association for Research in Vision and Ophthalmology Statement for the Use of Animals in Ophthalmic and Vision Research. 82 male Brown Norway rats (Rattus norvegicus), each weighing approximately 250 gm, were treated using procedures approved by the Animal Care Committee of the Johns Hopkins University School of Medicine. The rats were housed with a 12 hour light/12 hour dark cycle and fed ad libitum .
EXPERIMENTAL GLAUCOMA: Unilateral elevation of IOP was produced in 56 rats by microinjection of hypertonic saline into episcleral veins, following procedures described in Morrison, J. et al., IOVS (March 1998) 39:526-531. Beginning on the day of IOP elevation, the rats were treated daily with intraperitoneal injections of either a vehicle (23 rats with 50 mM HEPES-buffered saline) or a NAALADase inhibitor (11 rats with 10 mg/kg of 2-[[(2,3,4,5,6-pentafluorobenzyl)hydroxyphosphinyl]-methyl]pentanedioic acid (“Compound A”) and 22 rats with 10 mg/kg of 2-(3-sulfanylpropyl)pentanedioic acid (“Compound B”)). 11 saline treated rats, 11 Compound A treated rats and 11 Compound B treated rats were sacrificed at 8 weeks, and the remaining rats at 12 weeks, after initial IOP elevation.
(§2) OPTIC NERVE COUNTING: The rats were sacrificed by exsanguination under deep pentobarbital anesthesia. They were perfused through the heart with 2% paraformaldehyde/2% glutaraldehyde in 0.1 M phosphate buffer, pH 7.2, and the eyes with attached optic nerves were removed. A cross-section of the optic nerve from both experimental (glaucoma or transection) and control eyes was removed 1.5 mm posterior to the globe, 1 mm in thickness, and post-fixed in 2% osmium tetroxide in buffer. These were processed into epoxy resin, sectioned at 1 micron and stained with toluidine blue.
(§3) The area of the optic nerve cross-section was measured by outlining its outer border at 10×magnification on an image analysis system (Universal Imaging Corp., Westchester, Pa.) with Synsys digital camera and Metamorph software. Three area measurements were taken and the mean value was determined. To measure the density and fiber diameter distributions, images were captured with a 100× phase contrast objective from 10 different areas of each nerve. These were edited to eliminate non-neural objects and the size of each axon internal to the myelin sheath (its minimum diameter) and the density of axons/square mm were calculated for each image and nerve. The mean density was multiplied by total nerve area to yield fiber number for each nerve. The total fiber number in glaucoma or transection nerves was compared to the normal, fellow eye of each rat to yield a percent loss value. The number of axons counted among the 10 images was an approximately 20% sample of the 80-90,000 axons in normal rat nerves. The person measuring axon number was masked to the protocol conducted on the nerves.

male Brown Norway rats [2] = experiment: Optic nerve transection in rats, optic nerve fiber counting; assay type: in vivo, Rattus norvegicus; details: for FIBER NUMBER ± SEM / PERCENT DIFFERENCE ± SEM: 10 mg/kg daily i.p.; for PERCENT DIFFERENCE ± SEM: transected vs normal eye
Procedure: as §1
OPTIC NERVE TRANSECTION: The optic nerve was transected unilaterally in 26 rats under intraperitoneal pentobarbital anesthesia. The conjunctiva was opened with scissors and the optic nerve exposed by traction on extraocular muscles. The transection was performed with microscissors 5 mm posterior to the globe, with specific attention to avoidance of injury to major ocular blood vessels. Immediately after transection, the retina was examined ophthalmoscopically to assure that the retinal arterial blood supply was not disrupted. The conjunctiva was closed with absorbable suture and the eye dressed with antibiotic ointment. Beginning on the day of transection, the rats were treated daily with intraperitoneal injections of either a vehicle (9 rats with 50 mM HEPES-buffered saline) or a NAALADase inhibitor (8 rats with 10 mg/kg of Compound A and 9 rats with 10 mg/kg of Compound B). 5 saline treated rats, 3 Compound A treated rats and 4 Compound B treated rats were sacrificed at 2 weeks, and the remaining rats at 4 weeks, after transection.
as §2, §3

BB/W rats = experiment: Retinal pathology in diabetic BB/W rats (basement membrane thickness, E/P ratio); assay type: in vivo, rat; details: for BM THICKNESS (nm) ± SD (n = 3) / E/P RATIO (n = 8–10): diabetic rats
Procedure: Four (4) groups of rats received daily insulin injections to maintain their glucose levels at about 350 mg/dl. Starting at the onset of hyperglycemia, NAALADase inhibitor 2-(3-sulfanylpropyl)-pentanedioic acid was administered daily for 6 months to one group of BB/W rats at a dose of 10 mg/kg and to a second group of BB/W rats at a dose of 30 mg/kg. A third group of BB/W rats and a fourth group of non-diabetic rats received daily vehicle treatment (50 mM Hepes buffered saline).
After six (6) months of NAALADase inhibitor or vehicle treatment, the rats were sacrificed and their eyes were removed. From each rat, one eye was processed for elastase digest while the other eye was processed for transmission electron microscopy (TEM) and basement membrane (BM) thickness.
Retinal digests were prepared using elastase on retinas as described in Layer, N. , Invest Ophthalmol Vis Sci (1993) 34:2097. Eyes were removed from recently killed BB/W rats (n=25) and age-matched transgenic controls (n=10). The retinas (n=35) were fixed at room temperature by immersing the whole eye (slit at limbus) in 4% (w/v) paraformaldehyde in 50 mmol/L Na-K phosphate buffer with 8% sucrose. The fixed retinas were rinsed in deionized water and were incubated for 3 minutes in a 37° C. agitating water bath in 40 units/mL elastase in Na-K phosphate buffer with 150 mmol/L NaCl and 5 mmol/L ethylenediamine tetraacetic acid (EDTA), pH 6.5. The tissues were washed overnight in 100 mmol/L Tris-HCL (pH 8.5) and then transferred to deionized water for removal of the loosened vitreous and digested neural elements by gentle agitation using the sides of closed forceps and the sides and ends of very fine brushes. After all loose tissues were removed, the retinas were incubated once more in fresh enzyme for 3 minutes and then subjected to a second overnight wash at room temperature in Tns-HCl buffer. On the third day, the retinas were again transferred to deionized water for additional removal of digested neural elements. The vascular network that was completely free of nonvascular elements was mounted flat by flotation in Ca^2+ and Mg^2+ free Dulbecco's PBS on siliconized slides (#S1308, Oncor, Gaithersburg, Md.). After air drying in a dust free environment, the mounts of the retinal microvasculature were stained using periodic acid Schiff reaction and hematoxylin counterstaining, as described in Luna, L., ed. Manual of Histologic Staining Methods of the Armed Forces Institute of Pathology (1968) McGraw-Hill, New York, N.Y. The preparations were then examined by light microscopy and photographed.
The stained and intact retinal whole mounts were coded and subsequent counting was done masked, as described in Cuthbertson, R., Invest Ophthalmol Vis Sci. (1986) 27:1659-1664).
Ten fields at ×100 magnification were counted for endothelial and pericyte cells using previously described morphologic criteria (see Kuwabara, T., Arch Ophthalmol. (1960) 64:904-911). In every sample, at least 200 cells were counted from the mid zone of the retina. Mean values for endothelial cell/pericyte (E/P) ratios were initially calculated in 3 retinas from each of the four (4) groups of rats.
Each eye was fixed in 4% glutaraldehyde and dissected free of sclera and choroids, then trimmed and postfixed in 1% osmium tetroxide. After dehydration and embedding, thin sections were stained with uranyl acetate and lead citrate. Initially, EM thickness of retinal capillaries from 3 non-diabetic rats receiving vehicle, 3 diabetic animals receiving 10 mg/kg 2-(3-sulfanylpropyl)-pentanedioic acid, and 3 diabetic rats receiving 30 mg/kg 2-(3-sulfanylpropyl)-pentanedioic acid were compared with 3 diabetic rats receiving a vehicle. At least 10 capillaries per eye from the inner nuclear and plexiform layers were photographed at a magnification of 10,000×. Exact magnification was determined for each set of negatives with a 28,800 line/inch calibration grid. Negatives were enlarged 3×. […]

[3] = 2 weeks survival after transection
[4] = 4 weeks survival after transection
[5] = 10 mg/kg daily for 6 months, 10 mg/kg
[6] = 10 mg/kg daily for 6 months, listed as NAALADASE INHIBITOR, 10 mg/kg
[7] = 30 mg/kg daily for 6 months, 30 mg/kg
[8] = 30 mg/kg daily for 6 months, listed as NAAALADASE INHIBITOR, 30 mg/kg
[9] = high dose (30 mg/kg), six months, vs diabetic vehicle
[10] = low dose (10 mg/kg), six months, vs diabetic vehicle

Chain of NAALADase (P70627 whole entry): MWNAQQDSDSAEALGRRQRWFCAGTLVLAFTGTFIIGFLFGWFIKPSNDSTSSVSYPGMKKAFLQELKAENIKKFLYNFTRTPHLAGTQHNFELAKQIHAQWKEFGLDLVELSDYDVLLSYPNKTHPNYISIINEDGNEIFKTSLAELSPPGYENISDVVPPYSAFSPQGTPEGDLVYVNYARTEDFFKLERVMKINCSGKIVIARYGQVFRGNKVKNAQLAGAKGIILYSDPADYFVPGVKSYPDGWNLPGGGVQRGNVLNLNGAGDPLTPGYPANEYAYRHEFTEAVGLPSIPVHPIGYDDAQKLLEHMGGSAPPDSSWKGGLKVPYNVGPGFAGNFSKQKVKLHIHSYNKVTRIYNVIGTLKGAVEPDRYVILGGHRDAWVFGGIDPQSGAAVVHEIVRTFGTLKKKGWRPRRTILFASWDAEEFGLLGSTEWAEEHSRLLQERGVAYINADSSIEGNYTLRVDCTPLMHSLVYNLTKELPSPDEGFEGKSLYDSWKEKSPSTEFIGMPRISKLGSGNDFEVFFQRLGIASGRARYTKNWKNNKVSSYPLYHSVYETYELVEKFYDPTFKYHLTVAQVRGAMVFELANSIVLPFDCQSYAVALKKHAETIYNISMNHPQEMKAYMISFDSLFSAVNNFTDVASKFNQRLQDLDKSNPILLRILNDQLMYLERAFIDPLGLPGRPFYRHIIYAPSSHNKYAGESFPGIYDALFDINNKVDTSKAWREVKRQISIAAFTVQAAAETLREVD

For `CC(=O)N[C@@H](CC(=O)O)C(=O)N[C@@H](CCC(=O)O)C(=O)O` [NAAG, N-acetyl-aspartyl-glutamate] (Ac-Asp-Glu-OH), the Km (NAALADase) is given as 0.54 µM.

In the case of `O=C(O)CCC(CCCS)C(=O)O` (stereo not drawn) [Compound B, 2-(3-sulfanylpropyl)pentanedioic acid], the “FIBER NUMBER ± SEM” value (male Brown Norway rats [1]; 8 week group) is reported as 80785 ± 2121, the “PERCENT DIFFERENCE ± SEM” value (male Brown Norway rats [1]; 8 week group, fiber number glaucoma vs normal eye, positive = fewer fibers in glaucoma eye) is reported as −0.82 ± 2.97% and the “IOP INTEGRAL DIFFERENCE ± SEM” value (male Brown Norway rats [1]; 8 week group, glaucoma eye vs normal eye) is reported as 116 ± 33.2 mm Hg—days. The “FIBER NUMBER” value (male Brown Norway rats [1]; 12 week group) was 90504 ± 1718, the “PERCENT DIFFERENCE” value (male Brown Norway rats [1]; 12 week group, fiber number glaucoma vs normal eye) was −3.21 ± 2.86% and the “IOP INTEGRAL DIFFERENCE” value (male Brown Norway rats [1]; 12 week group, glaucoma eye vs normal eye) was 109 ± 45.2 mm Hg—days. For the same compound, the “remaining axons relative to the saline-treated rats” value (male Brown Norway rats [2]; 2 weeks after transection) was “twice”, the “FIBER NUMBER ± SEM” value (male Brown Norway rats [2]; [3]) was 19,550 ± 5,091 and the “PERCENT DIFFERENCE ± SEM” value (male Brown Norway rats [2]; [3]) was 75.3 ± 6.6%. The “FIBER NUMBER ± SEM” value (male Brown Norway rats [2]; [4]) was 5,162 ± 2,509, the “PERCENT DIFFERENCE ± SEM” value (male Brown Norway rats [2]; [4]) was 93.4 ± 3.1% and the “BM THICKNESS (nm) ± SD (n = 3)” value (BB/W rats; [5]) was 82.3±4.07 nm. The “E/P RATIO (n = 8–10)” value (BB/W rats; [5]) was 2.4±0.5, the “BM THICKNESS (nm) ± SD (n = 3)” value (BB/W rats; [6]) was 82.3 ± 4.07 nm and the “E/P RATIO (n = 8–10)” value (BB/W rats; [6]) was 2.4 ± 0.5. For the same compound, the “BM THICKNESS (nm) ± SD (n = 3)” value (BB/W rats; [7]) was 71.7±4.07 nm, the “E/P RATIO (n = 8–10)” value (BB/W rats; [7]) was 1.9±0.4 and the “BM THICKNESS (nm) ± SD (n = 3)” value (BB/W rats; [8]) was 71.7 ± 4.07 nm. For the same compound, the “E/P RATIO (n = 8–10)” value (BB/W rats; [8]) was 1.9 ± 0.4, the “reduction in BM thickness” value (BB/W rats; [9]) was 29.0% and the “reduction of E/P ratios” value (BB/W rats; [9]) was 37%. The “decrease in BM thickness” value (BB/W rats; [10]) was 18.5% and the “reduction of E/P ratios” value (BB/W rats; [10]) was 20%.

From patent US7220780B2, “Naaladase inhibitors for treating retinal disorders and glaucoma” (Guilford Pharmaceuticals Inc., priority 2000, dated 2007)
